In article PMC10400924 (The Journal of Biological Chemistry, 2023):
Where two headings read alike, the source gives them in different places.

Experiments:
IFNγR1 [1] = target: T1, IFNγR1 (Homo sapiens, UniProt P15260); experiment: biochemical
Target sequence in this assay (P15260 18-489 limits assumed): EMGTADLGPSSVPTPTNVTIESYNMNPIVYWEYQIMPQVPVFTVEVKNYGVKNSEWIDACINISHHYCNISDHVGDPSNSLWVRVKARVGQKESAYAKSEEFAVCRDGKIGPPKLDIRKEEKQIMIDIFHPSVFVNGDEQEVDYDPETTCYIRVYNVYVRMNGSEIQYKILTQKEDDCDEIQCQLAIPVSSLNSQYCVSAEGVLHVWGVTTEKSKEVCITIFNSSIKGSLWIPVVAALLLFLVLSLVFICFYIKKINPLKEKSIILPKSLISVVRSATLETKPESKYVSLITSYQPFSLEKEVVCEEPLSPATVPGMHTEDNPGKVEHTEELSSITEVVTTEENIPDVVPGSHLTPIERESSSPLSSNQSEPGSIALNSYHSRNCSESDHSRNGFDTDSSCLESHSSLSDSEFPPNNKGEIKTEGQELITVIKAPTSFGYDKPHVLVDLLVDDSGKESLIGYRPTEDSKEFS

IFNγR1 [2] = target: T1, IFNγR1; conditions: 10 μM CF, 3 h, intact NK92 cells
Target sequence in this assay (P15260 18-489): as the sequence (P15260 18-489 limits assumed) above

[3] = target: interferon γ receptor 1 protein (immobilised for SPR) (UniProt P15260); experiment: SPR
[4] = target: interferon γ receptor 1 protein (immobilised for SPR) (UniProt P15260); experiment: SPR; remark: listed apart in the source

interferon γ, sequence (P01579 24-161): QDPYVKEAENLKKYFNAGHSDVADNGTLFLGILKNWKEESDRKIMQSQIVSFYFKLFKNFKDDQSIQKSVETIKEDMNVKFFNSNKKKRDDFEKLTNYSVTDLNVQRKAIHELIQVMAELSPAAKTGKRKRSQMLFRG
interferon γ receptor 1 protein (immobilised for SPR), sequence (P15260 18-489): as the sequence (P15260 18-489 limits assumed) above

COc1cc(/C=C/C(=O)O[C@H]2CC[C@]34C[C@]35CC[C@]3(C)[C@@H]([C@H](C)CCC=C(C)C)CC[C@@]3(C)[C@@H]5CC[C@H]4C2(C)C)ccc1O [CF, Cycloartenyl ferulate]
Kd (IFNγR1 [1]): 500 nM | thermal stability (CETSA) (IFNγR1 [2]): When treated with CF, the thermal stability of IFNγR1 was significantly increased

interferon γ (from UniProt P01579 24-161) (ligand)
Kd [3]: 4.5 nM | Kd [4]: 2.8 nM
